# Experimental data: patent publication US5591741A, “Fungicidal spiroheterocyclic derivatives” (American Cyanamid Company, priority 1993, dated 1997)
# Key:
# Plasmopara viticola = test: Antisporulant activity against vine downy mildew (PVA); format: in vivo; conditions: vine leaves, antisporulant foliar spray, 600 ppm, 750 l/ha
# How it was run: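 Cabernet Sauvignon vines (~8 cm) inoculated on lower leaf surfaces with 5×10^4 zoosporangia/ml, held 24 h at 21° C high humidity then 24 h glasshouse. Infected leaves sprayed underside with 600 ppm compound in 1:1 water/acetone, 0.04% Tween 20, 750 l/ha; 96 h glasshouse, 24 h humidity. Sporulating leaf area rated versus control.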
# Alternaria solani = test: Activity against tomato early blight (AS); format: in vivo; conditions: Table VI; tomato seedlings, contact prophylactic foliar spray, 4 days
# How it was run: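 Foliar contact prophylactic spray on tomato seedlings (cv Outdoor Girl, second true leaf expanded) in acetone/water 50:50 with 0.04% Tween 20; 24 h at 20° C, 40% R.H., then inoculation with 10^4 spores/ml A. solani conidia. Kept moist at 21° C; lesion cover rated 4 days post-inoculation against untreated or diluent-sprayed controls.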
# Botrytis cinerea = test: Direct protectant activity against broad bean grey mould (BCB); format: in vivo; conditions: direct protectant foliar spray, 600 ppm, 4 days
# How it was run: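 Broad bean plants (cv The Sutton, two leaf pairs) sprayed on upper leaf surfaces at 600 ppm, then inoculated 24 h later with 10^6 conidia/ml. Kept 4 days at 22 °C, high humidity; disease control rated from % leaf area with lesions against untreated or diluent controls.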
# Leptosphaeria nodorum = test: Activity against wheat leafspot (LN); format: in vivo; conditions: direct therapeutic foliar spray, 600 ppm, 6-8 days
# How it was run: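 Wheat cv Norman at single-leaf stage spray-inoculated with 1.5×10^6 conidia/ml, held 24 h at high humidity, then sprayed therapeutically with test compound at 600 ppm. Kept 6-8 days at 22° C, 70% humidity; lesion density per leaf rated against untreated or diluent-sprayed controls.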
# [1] = test system: Erysiphe graminis f.sp. hordei; test: Activity against barley powdery mildew, direct therapeutic (EGT); format: in vivo; conditions: direct therapeutic foliar spray, 600 ppm, up to 7 days
# How it was run: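 Barley seedlings (cv. Golden Promise, single-leaf stage) were dusted with mildew conidia one day before a therapeutic foliar spray of 600 ppm compound. Plants were kept at 18 °C and 40% humidity for up to 7 days, and sporulating leaf area was rated against untreated or diluent-sprayed controls.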
# [2] = test system: Erysiphe graminis f.sp. hordei; test: Direct protectant activity against barley powdery mildew (EGP); format: in vivo; conditions: direct protectant foliar spray, 8 days
# How it was run: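 Barley seedlings (cv Golden Promise, single-leaf stage) were foliar-sprayed, held 24 h at 18 °C/40% RH, then dusted with mildew conidia. After 8 days at 18 °C/40% RH, sporulating leaf area was scored as a rating against untreated or diluent-sprayed controls.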
# Phytophthora infestans = format: in vivo; conditions: tomato, direct protectant foliar spray
# [3] = test system: Pseudocercosporella herpotrichoides; test: Activity against wheat eyespot in-vitro (PHI); format: cell-based; conditions: 10 ppm, 10 days, 20° C., mycelial growth
# How it was run: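 P. herpotrichoides mycelial fragments (5×10^4/ml) grown in half-strength PDB with compound at 10 ppm final, added from acetone. Incubated 10 days at 20 °C; mycelial growth rated against untreated or diluent controls.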
# Rhizoctonia solani = test: Activity against Rhizoctonia in-vitro (RSI); format: cell-based; conditions: 10 ppm, 10 days, 20° C., mycelial growth
# How it was run: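 R. solani mycelial fragments (5×10^4/ml) in half-strength Potato Dextrose Broth with compound added from acetone to 10 ppm final. Mycelial growth assessed after 10 days at 20° C, rated against untreated or diluent control.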
# Venturia inaequalis = test: Activity against apple scab in-vitro (VII); format: cell-based; conditions: 10 ppm, 10 days, 20° C., mycelial growth
# How it was run: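 Compound in acetone was tested at 10 ppm final in half-strength Potato Dextrose Broth inoculated with V. inaequalis mycelial fragments and spores at 5×10^4 propagules/ml. After 10 days at 20° C, mycelial growth was rated against untreated or diluent controls.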
# Pyricularia oryzae = format: in vivo; conditions: rice seedlings, direct therapeutic foliar spray, 600 ppm, 4-5 days
SMILES,disease control rating PVA (Plasmopara viticola),disease control rating AS (Alternaria solani),disease control rating BCB (Botrytis cinerea),disease control rating LN (Leptosphaeria nodorum),disease control rating EGT [1],disease control rating EGP [2],disease control rating PIP (Phytophthora infestans),disease control rating PHI [3],disease control rating RSI (Rhizoctonia solani),disease control rating VII (Venturia inaequalis),disease control rating PO (Pyricularia oryzae)
c1ccc(C2CCC3(CC2)CC(NC2CCCCC2)CO3)cc1 (centres unmarked) [Compound 56],0 (less than 50% disease control),0 (less than 50% disease control),2 (greater than 80% disease control),2 (greater than 80% disease control),2 (greater than 80% disease control),2 (greater than 80% disease control),0 (less than 50% disease control),0 (less than 50% disease control),0 (less than 50% disease control),1 (about 50-80% disease control),0 (less than 50% disease control)
CC1CC(C)CN(C2COC3(CCC(c4ccccc4)CC3)C2)C1 (centres unmarked) [Compound 57],0 (less than 50% disease control),0 (less than 50% disease control),0 (less than 50% disease control),1 (about 50-80% disease control),2 (greater than 80% disease control),2 (greater than 80% disease control),0 (less than 50% disease control),0 (less than 50% disease control),0 (less than 50% disease control),1 (about 50-80% disease control),0 (less than 50% disease control)
CC1CN(C2COC3(CCC(c4ccccc4)CC3)C2)CC(C)O1 (centres unmarked) [Compound 58],0 (less than 50% disease control),0 (less than 50% disease control),0 (less than 50% disease control),2 (greater than 80% disease control),2 (greater than 80% disease control),2 (greater than 80% disease control),0 (less than 50% disease control),0 (less than 50% disease control),0 (less than 50% disease control),1 (about 50-80% disease control),0 (less than 50% disease control)
CCCCCCN(C)C1COC2(CCCCC2)C1 (centres unmarked) [Compound 59],0 (less than 50% disease control),0 (less than 50% disease control),0 (less than 50% disease control),0 (less than 50% disease control),2 (greater than 80% disease control),2 (greater than 80% disease control),0 (less than 50% disease control),0 (less than 50% disease control),0 (less than 50% disease control),0 (less than 50% disease control),0 (less than 50% disease control)
CCCCCCN(C)C1COC2(CCC(C(C)(C)CC)CC2)C1 (centres unmarked) [Compound 60],0 (less than 50% disease control),0 (less than 50% disease control),0 (less than 50% disease control),1 (about 50-80% disease control),2 (greater than 80% disease control),2 (greater than 80% disease control),0 (less than 50% disease control),0 (less than 50% disease control),2 (greater than 80% disease control),1 (about 50-80% disease control),0 (less than 50% disease control)
CCCCCCN(C)C1COC2(CCC(c3ccccc3)CC2)C1 (centres unmarked) [Compound 61],0 (less than 50% disease control),0 (less than 50% disease control),0 (less than 50% disease control),1 (about 50-80% disease control),2 (greater than 80% disease control),2 (greater than 80% disease control),0 (less than 50% disease control),2 (greater than 80% disease control),0 (less than 50% disease control),1 (about 50-80% disease control),0 (less than 50% disease control)
CCCNC1COC2(CCC(C(C)(C)C)CC2)C1 (centres unmarked) [Compound 62],0 (less than 50% disease control),0 (less than 50% disease control),1 (about 50-80% disease control),0 (less than 50% disease control),2 (greater than 80% disease control),2 (greater than 80% disease control),0 (less than 50% disease control),0 (less than 50% disease control),0 (less than 50% disease control),0 (less than 50% disease control),0 (less than 50% disease control)
CC(C)NC1COC2(CCC(C(C)(C)C)CC2)C1 (centres unmarked) [Compound 63],0 (less than 50% disease control),0 (less than 50% disease control),0 (less than 50% disease control),0 (less than 50% disease control),2 (greater than 80% disease control),2 (greater than 80% disease control),0 (less than 50% disease control),0 (less than 50% disease control),0 (less than 50% disease control),0 (less than 50% disease control),0 (less than 50% disease control)
CCCCNC1COC2(CCC(C(C)(C)C)CC2)C1 (centres unmarked) [Compound 64],0 (less than 50% disease control),0 (less than 50% disease control),2 (greater than 80% disease control),0 (less than 50% disease control),2 (greater than 80% disease control),2 (greater than 80% disease control),2 (greater than 80% disease control),0 (less than 50% disease control),0 (less than 50% disease control),0 (less than 50% disease control),0 (less than 50% disease control)
CCC(C)NC1COC2(CCC(C(C)(C)C)CC2)C1 (centres unmarked) [Compound 65],0 (less than 50% disease control),0 (less than 50% disease control),2 (greater than 80% disease control),0 (less than 50% disease control),2 (greater than 80% disease control),2 (greater than 80% disease control),0 (less than 50% disease control),0 (less than 50% disease control),0 (less than 50% disease control),0 (less than 50% disease control),0 (less than 50% disease control)
